Experimental data: patent publication US20240352046A1, “ECTONUCLEOTIDE PYROPHOSPHATASE-PHOSPHODIESTERASE-1 (ENPP1) INHIBITORS AND USES THEREOF” (1cBio, Inc., priority 2020, published 2024)

Biological target: ENPP-1 (Ectonucleotide Pyrophosphatase/Phosphodiesterase 1) (Homo sapiens (Human), UniProt P22413)
Assay: ENPP1 inhibition assay (AMP Glo, cGAMP substrate)
Format: biochemical
Details: cGAMP 20 μM substrate, ENPP1 1 nM
Description: IC50 values of compounds against ENPP-1 (Ectonucleotide Pyrophosphatase/Phosphodiesterase 1) were determined at Integral BioSciences (India) using AMP Glo (Promega, Cat #V5011). Assay was performed in a 30 μL final volume in a white 96-well Half Area plate (Costar,Cat #3693). Dose response curve for the compounds were prepared in duplicates with starting conc. at 5 μM and a three-fold titration was performed. The reaction buffer consisted of 50 mM Tris (pH 8.0), 0.5 mM CaCl2), 1 μM ZnCl2, 250 mM NaCl and 0.1 mg/ml BSA. To the compound dilution, 15 μL of ENPP1 enzyme (R&D Systems; Cat #6136-EN-010) was added to each well (final conc. 1 nM) and the mix was pre-incubated for 15 min at RT. An equal volume (15 μL) containing cGAMP (Sigma, Cat #SML-1229) (final conc. 20 μM) was added to initiate the enzyme reaction and the reaction was incubated for 30 min at RT. The reaction was then stopped by heating at 90° C. for 3 minutes. 10 μl of reaction was then transferred to 384 well white, medium binding plates (Grenier, Cat #781075) to which 10 μl of AMP-Glo Reagent 1 was added and mixed well and incubated for 1 hour at 25° C. Following 60 min incubation, 20 μL of detection mixture was added to the enzyme reaction bringing the final volume to 40 μL. The reaction was further incubated for 60 min at RT after which the plates were read using BioTek Plate reader.
Analysis was done using the standard curve by non-linear regression, variable slope inhibitor curve fits (Graph-Pad Prism) and IC50's of compounds were determined wherever possible.

Sequence of ENPP-1 (Ectonucleotide Pyrophosphatase/Phosphodiesterase 1) (P22413 whole entry): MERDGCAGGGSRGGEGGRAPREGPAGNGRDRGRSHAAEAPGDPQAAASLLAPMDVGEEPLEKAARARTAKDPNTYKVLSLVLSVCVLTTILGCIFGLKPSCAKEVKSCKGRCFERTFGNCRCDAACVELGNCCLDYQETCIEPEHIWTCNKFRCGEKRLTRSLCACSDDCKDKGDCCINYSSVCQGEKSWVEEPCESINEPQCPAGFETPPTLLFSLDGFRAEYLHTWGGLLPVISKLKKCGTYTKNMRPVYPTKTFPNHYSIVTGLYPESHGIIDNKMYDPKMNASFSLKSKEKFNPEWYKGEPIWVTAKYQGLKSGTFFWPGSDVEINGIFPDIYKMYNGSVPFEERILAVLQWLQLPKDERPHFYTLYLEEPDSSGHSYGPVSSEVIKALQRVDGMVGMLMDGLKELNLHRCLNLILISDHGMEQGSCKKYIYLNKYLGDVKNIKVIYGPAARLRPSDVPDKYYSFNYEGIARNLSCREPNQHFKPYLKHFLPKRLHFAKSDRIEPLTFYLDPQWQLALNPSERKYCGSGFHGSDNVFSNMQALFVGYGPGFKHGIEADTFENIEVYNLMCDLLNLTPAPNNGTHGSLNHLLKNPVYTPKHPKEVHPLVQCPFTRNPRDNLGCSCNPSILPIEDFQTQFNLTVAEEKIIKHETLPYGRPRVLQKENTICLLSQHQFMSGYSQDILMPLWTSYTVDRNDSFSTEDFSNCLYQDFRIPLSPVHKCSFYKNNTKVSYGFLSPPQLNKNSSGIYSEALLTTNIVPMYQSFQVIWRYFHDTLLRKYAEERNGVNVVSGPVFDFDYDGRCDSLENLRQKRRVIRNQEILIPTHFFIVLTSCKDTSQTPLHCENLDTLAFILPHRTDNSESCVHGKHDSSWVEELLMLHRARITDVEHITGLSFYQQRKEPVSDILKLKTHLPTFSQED

| IC50 [µM] | Structure (SMILES) |
| --- | --- |
| > 3 | Cc1cc(Cl)n2ncnc(N3CC(CCN(C(C)C)S(N)(=O)=O)C3)c12 [Compound 1.83, N-(2-(1-(7-chloro-5-methylpyrrolo[2,1-f][1,2,4]triazin-4-yl)azetidin-3-yl)ethyl)-N-isopropylsulfamamide] |
| > 2.25 | Cc1cc(Cl)n2ncnc(N3CC(CCN(C)S(N)(=O)=O)C3)c12 [Compound 1.84, N-(2-(1-(7-chloro-5-methylpyrrolo[1,2-f][1,2,4]triazin-4-yl)azetidin-3-yl)ethyl)-N-methylsulfamide] |
| > 2.39 | Cc1cc(Cl)n2nc(C3CC3)nc(N3CC4(CC(N(C)S(N)(=O)=O)C4)C3)c12 [Compound 1.85] |
| 0.106 | Cc1cc(Cl)n2ncnc(N3CC(CN(C)S(N)(=O)=O)C3)c12 [Compound 1.86] |
| 0.024 | COc1ccc2c(N3CC4(CC(N(C)S(N)(=O)=O)C4)C3)cnnc2c1 [Compound 1.87, N-(2-(7-methoxycinnolin-4-yl)-2-azaspiro[3.3]heptan-6-yl)-N-methylsulfamide] |
| > 3 | Cc1cc(Cl)n2nc(C(F)F)nc(N3CC4(CC(N(C)S(N)(=O)=O)C4)C3)c12 [Compound 1.90] |
| > 3 | Cc1cc(C#N)n2ncnc(N3CC4(CC(N(C)S(N)(=O)=O)C4)C3)c12 [Compound 1.91, N-(2-(6-cyano-5-methylpyrrolo[1,2-f][1,2,4]triazin-4-yl)-2-azaspiro[3.3]heptan-6-yl)-N-methylsulfamamide] |
| 1.51 | Cc1cc(Cl)n2ncnc(N3CC(CCN(C4CC4)S(N)(=O)=O)C3)c12 [Compound 1.92, N-(2-(1-(7-chloro-5-methylpyrrolo[2,1-f][1,2,4]triazin-4-yl)azetidin-3-yl)ethyl)-N-cyclopropylsulfamamide] |
| 0.019 | Cc1cc(Cl)n2ncnc(N3CC4(CC(N(CCC(F)(F)F)S(N)(=O)=O)C4)C3)c12 [Compound 1.93, N-(2-(7-chloro-5-methylpyrrolo[2,1-f][1,2,4]triazin-4-yl)-2-azaspiro[3.3]heptan-6-yl)-N-(3,3,3-trifluoropropyl)sulfamamide] |
| > 3 | Cc1cc(Cl)n2ncnc(N3CC(CCN(C4CCC4)S(N)(=O)=O)C3)c12 [Compound 1.94, N-(2-(1-(7-chloro-5-methylpyrrolo[2,1-f][1,2,4]triazin-4-yl)azetidin-3-yl)ethyl)-N-cyclobutylsulfamamide] |
| 1.88 | CCCN(CCC1CN(c2ncnn3c(Cl)cc(C)c23)C1)S(N)(=O)=O [Compound 1.95, N-(2-(1-(7-chloro-5-methylpyrrolo[2,1-f][1,2,4]triazin-4-yl)azetidin-3-yl)ethyl)-N-propylsulfamamide] |
| > 3 | CN(C1CC2(C1)CN(c1nc(Cl)nc3c1cnn3C)C2)S(N)(=O)=O [Compound 1.96, N-(2-(6-chloro-1-methyl-1H-pyrazolo[3,4-d]pyrimidin-4-yl)-2-azaspiro[3.3]heptan-6-yl)-N-methylsulfamamide] |
| 0.036 | CCCN(C1CC2(C1)CN(c1ncnn3c(Cl)cc(C)c13)C2)S(N)(=O)=O [Compound 1.97, N-(2-(7-chloro-5-methylpyrrolo[2,1-f][1,2,4]triazin-4-yl)-2-azaspiro[3.3]heptan-6-yl)-N-propylsulfamamide] |
| 0.055 | CCN(C1CC2(C1)CN(c1ncnn3c(Cl)cc(C)c13)C2)S(N)(=O)=O [Compound 1.98, N-(2-(7-chloro-5-methylpyrrolo[2,1-f][1,2,4]triazin-4-yl)-2-azaspiro[3.3]heptan-6-yl)-N-ethylsulfamamide] |
| 0.01 | Cc1cc(Cl)n2ncnc(N3CC4(CC(N(CC(F)F)S(N)(=O)=O)C4)C3)c12 [Compound 1.99, N-(2-(7-chloro-5-methylpyrrolo[2,1-f][1,2,4]triazin-4-yl)-2-azaspiro[3.3]heptan-6-yl)-N-(2,2-difluoroethyl)sulfamamide] |
| > 3 | CN(C1CC2(C1)CN(c1ncnc3scc(-c4ccccc4)c13)C2)S(N)(=O)=O [Compound 1.100, N-methyl-N-(2-(5-phenylthieno[2,3-d]pyrimidin-4-yl)-2-azaspiro[3.3]heptan-6-yl)sulfamamide] |

| IC50 [µM] | Structure (SMILES) |
| --- | --- |
| 0.59 | CCCN(C1CC2(C1)CN(c1nc(C)nn3c(Cl)cc(C)c13)C2)S(N)(=O)=O [Compound 1.103, N-(2-(7-chloro-2,5-dimethylpyrrolo[1,2-f][1,2,4]triazin-4-yl)-2-azaspiro[3.3]heptan-6-yl)-N-propylsulfatamide] |
| 0.091 | CN(C1CC2(C1)CN(c1ncnc3c1cnn3C)C2)S(N)(=O)=O [Compound 1.105, N-methyl-N-(2(1-methyl-1H-pyrazolo[3,4-d]pyrimidin-4-yl)-2-azaspiro[3.3]heptan-6-yl)sulfamamide] |
| > 3 | Cc1cc(Cl)n2nc(-c3ccc(F)cc3)nc(N3CC4(CC(N(C)S(N)(=O)=O)C4)C3)c12 [Compound 1.106, N-(2-(7-chloro-2-(4-fluorophenyl)-5-methylpyrrolo[2,1-f][1,2,4]triazin-4-yl)-2-azaspiro[3.3]heptan-6-yl)-N-methylsulfamamide] |
| > 3 | CN(C1CC2(C1)CN(c1nc(N)nc3[nH]cnc13)C2)S(N)(=O)=O [Compound 1.108, N-(2-(2-amino-9H-purin-6-yl)-2-azaspiro[3.3]heptan-6-yl)-N-methylsulfamamide] |
| 0.189 | Cc1cc(Cl)n2ncnc(N3CC4(CC(N(Cc5ccc(C(F)(F)F)cc5)S(N)(=O)=O)C4)C3)c12 [Compound 1.109, N-(2-(7-chloro-5-methylpyrrolo[2,1-f][1,2,4]triazin-4-yl)-2-azaspiro[3.3]heptan-6-yl)-N-(4-(trifluoromethyl)benzyl)sulfamamide] |
| 0.395 | Cc1cc(Cl)n2ncnc(N3CC4(CC(N(C5CCCC5)S(N)(=O)=O)C4)C3)c12 [Compound 1.110, N-(2-(7-chloro-5-methylpyrrolo[2,1-f][1,2,4]triazin-4-yl)-2-azaspiro[3.3]heptan-6-yl)-N-cyclopentylsulfamamide] |
| 0.398 | Cc1cc(Cl)n2ncnc(N3CC4(CC(N(C5CCC5)S(N)(=O)=O)C4)C3)c12 [Compound 1.111, N-(2-(7-chloro-5-methylpyrrolo[2,1-f][1,2,4]triazin-4-yl)-2-azaspiro[3.3]heptan-6-yl)-N-cyclobutylsulfamamide] |
| 0.141 | Cc1cc(Cl)n2ncnc(N3CC4(CC(N(Cc5ccccc5)S(N)(=O)=O)C4)C3)c12 [Compound 1.112, N-benzyl-N-(2-(7-chloro-5-methylpyrrolo[2,1-f][1,2,4]triazin-4-yl)-2-azaspiro[3.3]heptan-6-yl)sulfamamide] |
| 0.169 | Cc1cc(Cl)n2ncnc(N3CC4(CC(N(CC(C)(C)C)S(N)(=O)=O)C4)C3)c12 [Compound 1.113, N-(2-(7-chloro-5-methylpyrrolo[2,1-f][1,2,4]triazin-4-yl)-2-azaspiro[3.3]heptan-6-yl)-N-neopentylsulfamamide] |
| 0.039 | CCCCN(C1CC2(C1)CN(c1ncnn3c(Cl)cc(C)c13)C2)S(N)(=O)=O [Compound 1.114, N-butyl-N-(2-(7-chloro-5-methylpyrrolo[2,1-f][1,2,4]triazin-4-yl)-2-azaspiro[3.3]heptan-6-yl)sulfamamide] |
| 0.051 | Cc1cc(Cl)n2ncnc(N3CC4(CC(N(CC5CC5)S(N)(=O)=O)C4)C3)c12 [Compound 1.115, N-(2-(7-chloro-5-methylpyrrolo[2,1-f][1,2,4]triazin-4-yl)-2-azaspiro[3.3]heptan-6-yl)-N-(cyclopropylmethyl)sulfamamide] |
| 0.069 | Cc1cc(Cl)n2ncnc(N3CC4(CC(N(CC5CCC5)S(N)(=O)=O)C4)C3)c12 [Compound 1.116, N-(2-(7-chloro-5-methylpyrrolo[2,1-f][1,2,4]triazin-4-yl)-2-azaspiro[3.3]heptan-6-yl)-N-(cyclobutylmethyl)sulfamide] |
| 0.239 | Cc1cc(Cl)n2ncnc(N3CC4(CC(N(CC5CCCCC5)S(N)(=O)=O)C4)C3)c12 [Compound 1.117, N-(2-(7-chloro-5-methylpyrrolo[2,1-f][1,2,4]triazin-4-yl)-2-azaspiro[3.3]heptan-6-yl)-N-(cyclohexylmethyl)sulfamide] |
| 0.072 | Cc1cc(Cl)n2ncnc(N3CC4(CC(N(CC5CCC(F)(F)CC5)S(N)(=O)=O)C4)C3)c12 [Compound 1.118, N-(2-(7-chloro-5-methylpyrrolo[2,1-f][1,2,4]triazin-4-yl)-2-azaspiro[3.3]heptan-6-yl)-N-((4,4-difluorocyclohexyl)methyl)sulfamamide] |
| 0.218 | Cc1cc(Cl)n2ncnc(N3CC4(CC(N(CC5CCC(C(F)(F)F)CC5)S(N)(=O)=O)C4)C3)c12 (centres unmarked) [Compound 1.119, N-(2-(7-chloro-5-methylpyrrolo[2,1-f][1,2,4]triazin-4-yl)-2-azaspiro[3.3]heptan-6-yl)-N-((4-(trifluoromethyl)cyclohexyl)methyl)sulfamamide] |

| Structure (SMILES) | IC50 [µM] |
| --- | --- |
| Cc1cc(Cl)n2nc(C(C)C)nc(N3CC4(CC(N(C)S(N)(=O)=O)C4)C3)c12 [Compound 1.101, N-(2-(7-chloro-2-isopropyl-5-methylpyrrolo[1,2-f][1,2,4]triazin-4-yl)-2-azaspiro[3.3]heptan-6-yl)-N-methylsulfamide] | > 3 |
